≈ marks a conversion by molar mass, not a printed value. Calls of active or inactive are those of the source. The rule behind the calls is not given here.
Legend:
[1] = Inhibition of Haemophilus influenzae DNA gyrase-dependent DNA replication by scintillation proximity assay
Haemophilus influenzae = test: Antibacterial activity against Haemophilus influenzae H128 after 18 to 24 hrs by broth microdilution method; assay type: functional
Staphylococcus aureus = test: Antibacterial activity against Staphylococcus aureus WCUH 29 after 18 to 24 hrs by broth microdilution method; assay type: functional
Streptococcus pneumoniae [2] = test: Antibacterial activity against quinolone-resistant Streptococcus pneumoniae TPS3 after 18 to 24 hrs by broth microdilution method; assay type: functional
Streptococcus pneumoniae [3] = test: Antibacterial activity against quinolone-resistant Streptococcus pneumoniae TPS3 in rat respiratory tract infection model assessed as decrease in bacterial burden in lung at 100 mg/kg, po bid administered through gavage at 1, 7, 24,31 hrs post infection measured after 48 hrs; assay type: functional, organism-based
[4] = biological target: Voltage-gated inwardly rectifying potassium channel KCNH2 (Homo sapiens, UniProt Q12809); test: Inhibition of human ERG
Voltage-gated inwardly rectifying potassium channel KCNH2, sequence (Q12809 whole entry): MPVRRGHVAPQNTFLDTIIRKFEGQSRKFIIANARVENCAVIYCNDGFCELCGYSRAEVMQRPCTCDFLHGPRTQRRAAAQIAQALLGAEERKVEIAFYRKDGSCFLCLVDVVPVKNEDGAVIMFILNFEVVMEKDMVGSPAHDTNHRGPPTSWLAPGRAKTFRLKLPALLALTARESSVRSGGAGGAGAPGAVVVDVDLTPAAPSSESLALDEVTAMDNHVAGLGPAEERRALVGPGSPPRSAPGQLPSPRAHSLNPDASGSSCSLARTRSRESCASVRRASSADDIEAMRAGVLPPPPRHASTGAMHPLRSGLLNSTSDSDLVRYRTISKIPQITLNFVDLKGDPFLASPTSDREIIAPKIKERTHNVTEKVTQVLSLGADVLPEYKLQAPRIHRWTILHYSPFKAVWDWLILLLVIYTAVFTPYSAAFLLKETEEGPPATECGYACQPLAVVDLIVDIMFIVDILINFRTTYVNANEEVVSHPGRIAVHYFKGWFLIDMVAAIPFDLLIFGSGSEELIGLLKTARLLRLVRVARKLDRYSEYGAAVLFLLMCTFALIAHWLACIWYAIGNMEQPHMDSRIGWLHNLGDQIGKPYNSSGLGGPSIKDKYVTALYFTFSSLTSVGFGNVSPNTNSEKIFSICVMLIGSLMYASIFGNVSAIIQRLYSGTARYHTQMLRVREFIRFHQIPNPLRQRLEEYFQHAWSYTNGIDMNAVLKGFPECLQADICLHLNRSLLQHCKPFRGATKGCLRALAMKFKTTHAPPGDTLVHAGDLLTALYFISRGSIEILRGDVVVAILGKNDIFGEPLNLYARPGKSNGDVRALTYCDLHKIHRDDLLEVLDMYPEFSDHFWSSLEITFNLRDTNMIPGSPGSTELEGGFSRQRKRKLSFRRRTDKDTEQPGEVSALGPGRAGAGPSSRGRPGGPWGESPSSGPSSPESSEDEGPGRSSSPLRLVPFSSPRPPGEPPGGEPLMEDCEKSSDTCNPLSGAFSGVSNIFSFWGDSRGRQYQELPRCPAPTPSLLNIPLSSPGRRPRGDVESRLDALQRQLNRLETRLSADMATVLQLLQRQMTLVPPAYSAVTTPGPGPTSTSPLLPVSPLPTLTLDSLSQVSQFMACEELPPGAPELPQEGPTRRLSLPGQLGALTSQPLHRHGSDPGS

[5] = Volume of distribution at steady state in Sprague-Dawley rat at 3 mg/kg, iv administered as single dose by LC/MS/MS analysis; assay type: ADME, organism-based; details: in vivo, read-out: Vdss
[6] = Terminal half life in Sprague-Dawley rat at 3 mg/kg, iv administered as single dose by LC/MS/MS analysis; assay type: ADME, organism-based; details: in vivo, read-out: beta t1/2 (converted)
[7] = Cmax in Sprague-Dawley rat at 5 mg/kg, po administered as single dose by LC/MS/MS analysis; assay type: ADME, organism-based; parameters: dose 5 mg/kg, route oral; details: in vivo
Rattus norvegicus [8] = test: AUC in Sprague-Dawley rat at 5 mg/kg, po administered as single dose by LC/MS/MS analysis; assay type: ADME, organism-based; details: in vivo
Rattus norvegicus [9] = test: Oral bioavailability in Sprague-Dawley rat at 5 mg/kg administered as single dose by LC/MS/MS analysis; assay type: ADME, organism-based; details: in vivo
[10] = Plasma protein binding in Sprague-Dawley rat at 0.5 to 5 ug/ml by equilibrium dialysis method; assay type: ADME, cell-free; details: read-out: PPB (converted)
Liver microsome [11] = test: Intrinsic clearance in Sprague-Dawley rat liver microsomes assessed per gram of liver at 0.5 uM by LC/MS/MS analysis; assay type: ADME
[12] = Volume of distribution at steady state in Beagle dog at 3 mg/kg, iv administered as single dose by LC/MS/MS analysis; assay type: ADME, organism-based, Canis lupus familiaris; details: in vivo, read-out: Vdss
[13] = Terminal half life in Beagle dog at 3 mg/kg, iv administered as single dose by LC/MS/MS analysis; assay type: ADME, organism-based, Canis lupus familiaris; details: in vivo, read-out: beta t1/2 (converted)
[14] = Cmax in Beagle dog at 5 mg/kg, po administered as single dose by LC/MS/MS analysis; assay type: ADME, organism-based, Canis lupus familiaris; parameters: dose 5 mg/kg, route oral; details: in vivo
Canis familiaris [15] = test: AUC in Beagle dog at 5 mg/kg, po administered as single dose by LC/MS/MS analysis; assay type: ADME, organism-based, Canis lupus familiaris; details: in vivo
Canis familiaris [16] = test: Oral bioavailability in Beagle dog at 5 mg/kg administered as single dose by LC/MS/MS analysis; assay type: ADME, organism-based, Canis lupus familiaris; details: in vivo
[17] = Plasma protein binding in Beagle dog at 0.5 to 5 ug/ml by equilibrium dialysis method; assay type: ADME, cell-free, Canis lupus familiaris; details: read-out: PPB (converted)
Liver microsome [18] = test: Intrinsic clearance in Beagle dog liver microsomes assessed per gram of liver at 0.5 uM by LC/MS/MS analysis; assay type: ADME, Canis lupus familiaris
[19] = Volume of distribution at steady state in cynomolgus monkey at 3 mg/kg, iv administered as single dose by LC/MS/MS analysis; assay type: ADME, organism-based, Macaca fascicularis; details: in vivo, read-out: Vdss
[20] = Terminal half life in cynomolgus monkey at 3 mg/kg, iv administered as single dose by LC/MS/MS analysis; assay type: ADME, organism-based, Macaca fascicularis; details: in vivo, read-out: beta t1/2 (converted)
[21] = Cmax in cynomolgus monkey at 5 mg/kg, po administered as single dose by LC/MS/MS analysis; assay type: ADME, organism-based, Macaca fascicularis; parameters: dose 5 mg/kg, route oral; details: in vivo
Cynomolgus monkey [22] = test: AUC in cynomolgus monkey at 5 mg/kg, po administered as single dose by LC/MS/MS analysis; assay type: ADME, organism-based, Macaca fascicularis; details: in vivo
Cynomolgus monkey [23] = test: Oral bioavailability in cynomolgus monkey at 5 mg/kg administered as single dose by LC/MS/MS analysis; assay type: ADME, organism-based, Macaca fascicularis; details: in vivo
[24] = Plasma protein binding in cynomolgus monkey at 0.5 to 5 ug/ml by equilibrium dialysis method; assay type: ADME, cell-free, Macaca fascicularis; details: read-out: PPB (converted)
[25] = Intrinsic clearance in cynomolgus monkey liver microsomes assessed per gram of liver at 0.5 uM by LC/MS/MS analysis; assay type: ADME, Macaca fascicularis
Rattus norvegicus [26] = test: Blood clearance in Sprague-Dawley rat at 3 mg/kg, iv administered as single dose by LC/MS/MS analysis relative to hepatic blood flow; assay type: ADME, organism-based, Liver; details: in vivo
Canis familiaris [27] = test: Blood clearance in Beagle dog at 3 mg/kg, iv administered as single dose by LC/MS/MS analysis relative to hepatic blood flow; assay type: ADME, organism-based, Canis lupus familiaris, Liver; details: in vivo
Cynomolgus monkey [28] = test: Blood clearance in cynomolgus monkey at 3 mg/kg, iv administered as single dose by LC/MS/MS analysis relative to hepatic blood flow; assay type: ADME, organism-based, Macaca fascicularis, Liver; details: in vivo
Canis familiaris [29] = test: Renal clearance in Beagle dog at 3 mg/kg, iv administered as single dose by LC/MS/MS analysis relative to total clearance; assay type: ADME, organism-based, Canis lupus familiaris, Kidney; details: in vivo
Cynomolgus monkey [30] = test: Renal clearance in cynomolgus monkey at 3 mg/kg, iv administered as single dose by LC/MS/MS analysis relative to total clearance; assay type: ADME, organism-based, Macaca fascicularis, Kidney; details: in vivo
Rattus norvegicus [31] = test: AUC in Sprague-Dawley rat at 100 mg/kg, po bid by LC/MS/MS analysis; assay type: ADME, organism-based; details: in vivo
[32] = Cmax in Sprague-Dawley rat at 100 mg/kg, po bid by LC/MS/MS analysis; assay type: ADME, organism-based; parameters: dose 100 mg/kg, route oral; details: in vivo
Streptococcus pneumoniae [33] = test: Antibacterial activity against quinolone-resistant Streptococcus pneumoniae TPS3 in rat respiratory tract infection model assessed as decrease in bacterial burden in lung at 50 mg/kg po bid administered through gavage at 1, 7, 24,31 hrs post infection measured after 48 hrs; assay type: functional, organism-based

Cc1ccc2ccc(=O)n3c2c1[C@H](CN1CCC(NCc2cc4c(nn2)OCCO4)CC1)C3
IC50 [1]: 0.076 µg/mL (≈ 0.17 µM) | MIC (Haemophilus influenzae): 4 µg/mL (≈ 8.94 µM) | MIC (Staphylococcus aureus): 0.25 µg/mL (≈ 0.559 µM) | MIC (Streptococcus pneumoniae [2]): 1 µg/mL (≈ 2.23 µM)

O=c1ccc2cccc3c2n1C[C@H]3CN1CCC(NCc2cc3c(nn2)OCCO3)CC1
MIC (Haemophilus influenzae): 2 µg/mL (≈ 4.61 µM) | MIC (Staphylococcus aureus): 0.5 µg/mL (≈ 1.15 µM) | MIC (Streptococcus pneumoniae [2]): 1 µg/mL (≈ 2.31 µM)

COc1c(N2C[C@@H]3CCCN[C@@H]3C2)c(F)cc2c(=O)c(C(=O)O)cn(C3CC3)c12 [MOXIFLOXACIN]
MIC (Streptococcus pneumoniae [2]): 4 µg/mL (≈ 9.96 µM) | Activity (Streptococcus pneumoniae [3]): inactive

O=C1CC(NCc2cc3c(nn2)OCCO3)CCN1C[C@@H]1Cn2c(=O)ccc3ccc(F)c1c32 (stereo partly specified)
IC50 [1]: 0.166 µg/mL (≈ 0.357 µM) | MIC (Haemophilus influenzae): > 16 µg/mL | MIC (Staphylococcus aureus): 16 µg/mL (≈ 34.4 µM) | MIC (Streptococcus pneumoniae [2]): 16 µg/mL (≈ 34.4 µM)

COc1ccc2ccc(=O)n3c2c1[C@H](CN1CCC(NCc2cc4c(nn2)OCCO4)CC1)C3
IC50 [1]: 0.276 µg/mL (≈ 0.595 µM) | MIC (Haemophilus influenzae): 16 µg/mL (≈ 34.5 µM) | MIC (Staphylococcus aureus): 2 µg/mL (≈ 4.31 µM) | MIC (Streptococcus pneumoniae [2]): 8 µg/mL (≈ 17.3 µM)

O=c1ccc2ccc(F)c3c2n1C[C@H]3CN1CCC(NCc2cc3c(nn2)OCCO3)CC1 [GSK-945237]
IC50 [1]: 0.034 µg/mL (≈ 0.0753 µM) | MIC (Haemophilus influenzae): 1 µg/mL (≈ 2.21 µM) | MIC (Staphylococcus aureus): 0.06 µg/mL (≈ 0.133 µM) | MIC (Streptococcus pneumoniae [2]): 0.25 µg/mL (≈ 0.554 µM) | IC50 [4]: 238 µM | Vd [5]: 7.2 L/kg | half-life [6]: 114 min | Cmax [7]: 40 ng/mL | AUC (Rattus norvegicus [8]): 290 ng·h/mL | F (Rattus norvegicus [9]): 22% | fraction unbound [10]: 0.367 | CLint (Liver microsome [11]): 0.7 mL/min/g | Vd [12]: 6.1 L/kg | half-life [13]: 528 min | Cmax [14]: 1070 ng/mL | AUC (Canis familiaris [15]): 6050 ng·h/mL | F (Canis familiaris [16]): 100% | fraction unbound [17]: 0.53 | CLint (Liver microsome [18]): < 0.6 mL/min/g | Vd [19]: 8.2 L/kg | half-life [20]: 456 min | Cmax [21]: 210 ng/mL | AUC (Cynomolgus monkey [22]): 1190 ng·h/mL | F (Cynomolgus monkey [23]): 34% | fraction unbound [24]: 0.576 | CLint [25]: 1.5 mL/min/g | CL (Rattus norvegicus [26]): 100% | CL (Canis familiaris [27]): 40% | CL (Cynomolgus monkey [28]): 40% | CL (Canis familiaris [29]): 74% | CL (Cynomolgus monkey [30]): 45% | AUC (Rattus norvegicus [31]): 30 ug.hr/ml/day | Cmax [32]: 3000 ng/mL | Activity (Streptococcus pneumoniae [33]): Active | Activity (Streptococcus pneumoniae [3]): Active

Cc1cc(F)c2c3c1ccc(=O)n3C[C@H]2CN1CCC(NCc2cc3c(nn2)OCCO3)CC1
IC50 [1]: 0.099 µg/mL (≈ 0.213 µM) | MIC (Haemophilus influenzae): 2 µg/mL (≈ 4.3 µM) | MIC (Staphylococcus aureus): 0.06 µg/mL (≈ 0.129 µM) | MIC (Streptococcus pneumoniae [2]): 0.5 µg/mL (≈ 1.07 µM)

O=c1ccc2ccc(F)c3c2n1C[C@@H]3CN1CCC(NCc2cc3c(nn2)OCCO3)CC1
IC50 [1]: 0.121 µg/mL (≈ 0.268 µM) | MIC (Haemophilus influenzae): > 16 µg/mL | MIC (Staphylococcus aureus): 2 µg/mL (≈ 4.43 µM) | MIC (Streptococcus pneumoniae [2]): 8 µg/mL (≈ 17.7 µM)

O=c1ccc2ccc(F)c3c2n1C[C@H]3CN1CCCC(CNCc2cc3c(nn2)OCCO3)C1 (stereo partly specified)
IC50 [1]: 0.666 µg/mL (≈ 1.43 µM) | MIC (Haemophilus influenzae): > 16 µg/mL | MIC (Staphylococcus aureus): 1 µg/mL (≈ 2.15 µM) | MIC (Streptococcus pneumoniae [2]): 4 µg/mL (≈ 8.59 µM)

O=c1cnc2ccc(F)c3c2n1C[C@H]3CN1CCC(NCc2cc3c(nn2)OCCO3)CC1
IC50 [1]: 0.036 µg/mL (≈ 0.0796 µM) | MIC (Haemophilus influenzae): 0.5 µg/mL (≈ 1.1 µM) | MIC (Staphylococcus aureus): 0.06 µg/mL (≈ 0.133 µM)

N#Cc1ccc2ccc(=O)n3c2c1[C@H](CN1CCC(NCc2cc4c(nn2)OCCO4)CC1)C3
IC50 [1]: 0.062 µg/mL (≈ 0.135 µM) | MIC (Haemophilus influenzae): 2 µg/mL (≈ 4.36 µM) | MIC (Staphylococcus aureus): 0.25 µg/mL (≈ 0.545 µM) | MIC (Streptococcus pneumoniae [2]): 0.5 µg/mL (≈ 1.09 µM)
